Test results as given in ChEMBL document CHEMBL1201862, “PubChem BioAssay data set” (2004).
“And” between values parts separate entries of the source, which are not always exact repeats. Equal entries are not always repeated.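 Five concentrations, 48 hours, 96-well plates. At the GI50, growth is halved.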 The source made the active and inactive calls. No stated cut-off is given here; in the data, active = GI50 up to about 1.1 µM and inactive = higher.

Columns and labels:
Experiment in all cases: NCI tumour cell line growth inhibition, 48 h
HCC 2998 = test system: HCC 2998
SF-295 = test system: SF-295
SK-MEL-28 = test system: SK-MEL-28
K562 = test system: K562
A549 = test system: A549
KM12 = test system: KM12
SNB-78 = test system: SNB-78
OVCAR-4 = test system: OVCAR-4
NCI-H23 = test system: NCI-H23
NCI-H522 = test system: NCI-H522
U-251 = test system: U-251
HCT-116 = test system: HCT-116
UO-31 = test system: UO-31
HOP-18 = test system: HOP-18
OVCAR-5 = test system: OVCAR-5
M19-MEL = test system: M19-MEL
DLD-1 = test system: DLD-1
EKVX = test system: EKVX
TK-10 = test system: TK-10
DMS-114 = test system: DMS-114
SF-268 = test system: SF-268
A498 = test system: A498
SK-MEL-2 = test system: SK-MEL-2
RPMI-8226 = test system: RPMI-8226
OVCAR-8 = test system: OVCAR-8
UACC-257 = test system: UACC-257
Malme-3M = test system: Malme-3M
NCI-H460 = test system: NCI-H460
MOLT-4 = test system: MOLT-4
OVCAR-3 = test system: OVCAR-3
HOP-62 = test system: HOP-62
CCRF-CEM = test system: CCRF-CEM
SK-MEL-5 = test system: SK-MEL-5
786-0 = test system: 786-0
HT-29 = test system: HT-29
HL-60 = test system: HL-60
SW-620 = test system: SW-620
SF-539 = test system: SF-539
ACHN = test system: ACHN
IGROV-1 = test system: IGROV-1
HCT-15 = test system: HCT-15
KM-20L2 = test system: KM-20L2
UACC-62 = test system: UACC-62
SNB-19 = test system: SNB-19
HOP-92 = test system: HOP-92
SN12C = test system: SN12C
LXFL 529 = test system: LXFL 529
RXF 393 = test system: RXF 393
M14 = test system: M14
DMS-273 = test system: DMS-273
CAKI-1 = test system: CAKI-1
NCI-H226 = test system: NCI-H226
SR = test system: SR
COLO 205 = test system: COLO 205
SNB-75 = test system: SNB-75
LOX IMVI = test system: LOX IMVI
SK-OV-3 = test system: SK-OV-3

`Cc1cccc(C)c1NC(=O)C1C(=O)N(c2c(C)cccc2C)C(=O)/C1=N\NC(N)=S` (centres undefined) was tested, and the GI50 (HCC 2998) was > 100 µM (inactive), the GI50 (SF-295) was > 100 µM (inactive) and the GI50 (SK-MEL-28) was > 100 µM (inactive). The GI50 (K562) was 92.9 µM (inactive), the GI50 (A549) was > 100 µM (inactive) and the GI50 (KM12) was > 100 µM (inactive). For the same molecule, the GI50 (SNB-78) was > 100 µM (inactive), the GI50 (OVCAR-4) was > 100 µM (inactive) and the GI50 (NCI-H23) was > 100 µM (inactive). For the same molecule, the GI50 (NCI-H522) was > 100 µM (inactive), the GI50 (U-251) was > 100 µM (inactive) and the GI50 (HCT-116) was 58.2 µM (inactive). The GI50 (UO-31) was > 100 µM (inactive), the GI50 (HOP-18) was 17.3 µM (inactive) and the GI50 (OVCAR-5) was > 100 µM (inactive). For the same molecule, the GI50 (M19-MEL) was > 100 µM (inactive), the GI50 (DLD-1) was > 100 µM (inactive) and the GI50 (EKVX) was > 100 µM (inactive). The GI50 (TK-10) was > 100 µM (inactive), the GI50 (DMS-114) was 36.1 µM (inactive) and the GI50 (SF-268) was > 100 µM (inactive). The GI50 (A498) was > 100 µM (inactive), the GI50 (SK-MEL-2) was > 100 µM (inactive) and the GI50 (RPMI-8226) was 89.5 µM (inactive). The GI50 (OVCAR-8) was > 100 µM (inactive), the GI50 (UACC-257) was > 100 µM (inactive) and the GI50 (Malme-3M) was > 100 µM (inactive). The GI50 (NCI-H460) was > 100 µM (inactive), the GI50 (MOLT-4) was 75.3 µM (inactive) and the GI50 (OVCAR-3) was > 100 µM (inactive). The GI50 (HOP-62) was > 100 µM (inactive), the GI50 (CCRF-CEM) was > 100 µM (inactive) and the GI50 (SK-MEL-5) was > 100 µM (inactive). For the same molecule, the GI50 (786-0) was > 100 µM (inactive), the GI50 (HT-29) was > 100 µM (inactive) and the GI50 (HL-60) was > 100 µM (inactive). For the same molecule, the GI50 (SW-620) was > 100 µM (inactive), the GI50 (SF-539) was > 100 µM (inactive) and the GI50 (ACHN) was > 100 µM (inactive). The GI50 (IGROV-1) was > 100 µM (inactive), the GI50 (HCT-15) was greater than 100 µM and the GI50 (KM-20L2) was 82.8 µM (inactive). The GI50 (UACC-62) was > 100 µM (inactive), the GI50 (SNB-19) was > 100 µM (inactive) and the GI50 (HOP-92) was > 100 µM (inactive). The GI50 (SN12C) was > 100 µM (inactive), the GI50 (LXFL 529) was > 100 µM (inactive) and the GI50 (RXF 393) was 10.4 µM (inactive). For the same molecule, the GI50 (M14) was > 100 µM (inactive).
With `COc1ccc(-c2cc(-c3ccco3)c(C#N)c(=O)n2C2OC(COC(C)=O)C(OC(C)=O)C(OC(C)=O)C2OC(C)=O)cc1` (centres undefined) the GI50 (HCC 2998) was > 100 µM (inactive), the GI50 (A549) was > 100 µM (inactive) and the GI50 (DMS-273) was > 100 µM (inactive). The GI50 (CAKI-1) was > 100 µM (inactive) and 63.5 µM (inactive), the GI50 (NCI-H226) was 2.63 µM (inactive) and the GI50 (KM12) was 69.7 µM (inactive). For the same molecule, the GI50 (SNB-78) was > 100 µM (inactive), the GI50 (OVCAR-4) was > 100 µM (inactive) and the GI50 (NCI-H23) was > 100 µM (inactive). The GI50 (OVCAR-5) was > 100 µM (inactive), the GI50 (M19-MEL) was 76 µM (inactive) and the GI50 (DLD-1) was 50.9 µM (inactive). For the same molecule, the GI50 (EKVX) was > 100 µM (inactive), the GI50 (TK-10) was 20 µM (inactive) and 28.1 µM (inactive) and the GI50 (RPMI-8226) was 5.58 µM (inactive) and 3.96 µM (inactive). For the same molecule, the GI50 (SR) was > 100 µM (inactive), the GI50 (UACC-257) was > 100 µM (inactive) and the GI50 (MOLT-4) was > 100 µM (inactive). The GI50 (COLO 205) was > 100 µM (inactive), the GI50 (SK-MEL-5) was > 100 µM (inactive) and the GI50 (SW-620) was > 100 µM (inactive). For the same molecule, the GI50 (KM-20L2) was > 100 µM (inactive), the GI50 (SNB-75) was > 100 µM (inactive) and 58.9 µM (inactive) and the GI50 (HOP-92) was 24.9 µM (inactive) and 22.1 µM (inactive). For the same molecule, the GI50 (LXFL 529) was 11.4 µM (inactive).
With `CCSc1nc2cccc([N+](=O)[O-])c2n1CC` the GI50 (LOX IMVI) was > 100 µM (inactive), the GI50 (HCC 2998) was > 100 µM (inactive) and the GI50 (SK-MEL-28) was > 100 µM (inactive). The GI50 (K562) was > 100 µM (inactive), the GI50 (A549) was > 100 µM (inactive) and the GI50 (DMS-273) was > 100 µM (inactive). The GI50 (CAKI-1) was > 100 µM (inactive), the GI50 (NCI-H226) was > 100 µM (inactive) and the GI50 (KM12) was > 100 µM (inactive). The GI50 (SNB-78) was > 100 µM (inactive), the GI50 (OVCAR-4) was > 100 µM (inactive) and the GI50 (NCI-H23) was > 100 µM (inactive). The GI50 (NCI-H522) was > 100 µM (inactive), the GI50 (U-251) was > 100 µM (inactive) and the GI50 (DLD-1) was > 100 µM (inactive). For the same molecule, the GI50 (EKVX) was > 100 µM (inactive), the GI50 (TK-10) was > 100 µM (inactive) and the GI50 (DMS-114) was > 100 µM (inactive). The GI50 (RPMI-8226) was > 100 µM (inactive), the GI50 (OVCAR-8) was > 100 µM (inactive) and the GI50 (UACC-257) was > 100 µM (inactive). The GI50 (NCI-H460) was > 100 µM (inactive), the GI50 (MOLT-4) was > 100 µM (inactive) and the GI50 (SK-OV-3) was > 100 µM (inactive). The GI50 (OVCAR-3) was > 100 µM (inactive), the GI50 (COLO 205) was > 100 µM (inactive) and the GI50 (CCRF-CEM) was > 100 µM (inactive). For the same molecule, the GI50 (SK-MEL-5) was > 100 µM (inactive), the GI50 (HT-29) was > 100 µM (inactive) and the GI50 (HL-60) was > 100 µM (inactive). The GI50 (SW-620) was > 100 µM (inactive), the GI50 (SF-539) was > 100 µM (inactive) and the GI50 (IGROV-1) was > 100 µM (inactive). The GI50 (UACC-62) was > 100 µM (inactive), the GI50 (SNB-19) was > 100 µM (inactive) and the GI50 (SNB-75) was > 100 µM (inactive). For the same molecule, the GI50 (HOP-92) was > 100 µM (inactive), the GI50 (LXFL 529) was > 100 µM (inactive) and the GI50 (RXF 393) was > 100 µM (inactive). The GI50 (M14) was > 100 µM (inactive).
